Assay results taken from BindingDB's records for doi:10.1016/j.ejphar.2004.01.015 (Abbott Laboratories, 2004).
Values joined by “and” are separate entries in the source; they are usually repeats but may differ in a detail not shown here. Equal values may be shown once.

Experiments:
Hrh3 protein = Hrh3 protein (Rattus norvegicus, UniProt Q5PPG3)
Histamine H1 receptor = Histamine H1 receptor (Homo sapiens, UniProt P35367)
Histamine H2 receptor = Histamine H2 receptor (Homo sapiens, UniProt P25021)
Histamine H3 receptor = Histamine H3 receptor (Homo sapiens, UniProt Q9Y5N1)
Histamine H4 receptor = Histamine H4 receptor (Homo sapiens, UniProt Q9H3N8)

Sequence of Histamine H1 receptor (P35367 whole entry): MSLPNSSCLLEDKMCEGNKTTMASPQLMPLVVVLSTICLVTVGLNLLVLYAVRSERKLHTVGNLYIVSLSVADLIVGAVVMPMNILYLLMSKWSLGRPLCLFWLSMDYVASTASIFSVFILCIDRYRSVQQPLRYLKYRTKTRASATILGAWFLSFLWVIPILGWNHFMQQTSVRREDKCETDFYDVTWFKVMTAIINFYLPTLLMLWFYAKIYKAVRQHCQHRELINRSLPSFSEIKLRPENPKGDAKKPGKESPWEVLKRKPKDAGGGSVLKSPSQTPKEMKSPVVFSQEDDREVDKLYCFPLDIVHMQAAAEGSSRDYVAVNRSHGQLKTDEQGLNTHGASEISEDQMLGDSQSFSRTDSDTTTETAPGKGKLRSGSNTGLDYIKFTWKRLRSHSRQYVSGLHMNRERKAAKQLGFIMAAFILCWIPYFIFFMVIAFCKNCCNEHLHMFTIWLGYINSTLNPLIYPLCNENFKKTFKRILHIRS
Sequence of Hrh3 protein (Q5PPG3 whole entry): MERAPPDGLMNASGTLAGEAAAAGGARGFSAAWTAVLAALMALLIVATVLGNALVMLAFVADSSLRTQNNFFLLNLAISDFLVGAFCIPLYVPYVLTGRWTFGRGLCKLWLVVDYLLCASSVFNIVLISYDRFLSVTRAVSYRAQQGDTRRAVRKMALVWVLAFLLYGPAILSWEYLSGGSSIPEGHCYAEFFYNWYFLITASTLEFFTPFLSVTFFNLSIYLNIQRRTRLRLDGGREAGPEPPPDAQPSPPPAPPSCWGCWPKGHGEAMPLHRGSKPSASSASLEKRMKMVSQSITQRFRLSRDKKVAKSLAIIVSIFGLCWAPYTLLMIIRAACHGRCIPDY
Sequence of Histamine H3 receptor (Q9Y5N1 whole entry): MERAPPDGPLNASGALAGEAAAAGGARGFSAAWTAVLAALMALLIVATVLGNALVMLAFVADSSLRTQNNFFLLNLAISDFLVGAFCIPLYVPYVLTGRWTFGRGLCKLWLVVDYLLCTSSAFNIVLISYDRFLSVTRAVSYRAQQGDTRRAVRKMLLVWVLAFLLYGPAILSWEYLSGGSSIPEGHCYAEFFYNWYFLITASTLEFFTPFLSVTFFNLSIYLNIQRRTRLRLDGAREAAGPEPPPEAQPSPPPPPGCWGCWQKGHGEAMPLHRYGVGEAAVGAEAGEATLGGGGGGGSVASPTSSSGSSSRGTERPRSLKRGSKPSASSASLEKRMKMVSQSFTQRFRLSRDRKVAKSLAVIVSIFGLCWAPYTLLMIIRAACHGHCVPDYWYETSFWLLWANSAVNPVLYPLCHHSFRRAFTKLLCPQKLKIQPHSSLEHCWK
Sequence of Histamine H2 receptor (P25021 whole entry): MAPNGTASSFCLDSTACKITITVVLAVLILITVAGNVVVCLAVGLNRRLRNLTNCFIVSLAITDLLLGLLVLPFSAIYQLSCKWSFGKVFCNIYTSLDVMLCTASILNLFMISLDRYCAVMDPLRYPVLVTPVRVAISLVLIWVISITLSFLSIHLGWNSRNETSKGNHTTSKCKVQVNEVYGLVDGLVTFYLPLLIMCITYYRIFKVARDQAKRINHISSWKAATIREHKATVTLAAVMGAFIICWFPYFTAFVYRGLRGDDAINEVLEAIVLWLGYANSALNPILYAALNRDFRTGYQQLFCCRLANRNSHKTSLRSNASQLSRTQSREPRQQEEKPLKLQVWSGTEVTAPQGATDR

SMILES	Ki (Hrh3 protein)	Ki (Histamine H1 receptor) [µM]	Ki (Histamine H2 receptor) [µM]	Ki (Histamine H3 receptor)	Ki (Histamine H4 receptor) [nM]
S=C(NC1CCCCC1)N1CCC(c2cnc[nH]2)CC1	7.5 nM and 3.21 nM	> 10	> 10		
NCCc1c[nH]cn1 [[3H]histamine]	4.9 nM and 2.66 nM				
O=C(CCCCC1CCCCC1)N1CCC(c2c[nH]cn2)CC1	25.8 nM	2.56	7.2	499 nM and 136 nM	734

Second part, the molecule after the results:

Ki (Hrh3 protein)	Ki (Histamine H1 receptor) [µM]	Ki (Histamine H2 receptor) [µM]	Ki (Histamine H3 receptor)	Ki (Histamine H4 receptor) [nM]	SMILES
0.654 nM and 0.427 nM	> 10	> 10			O=C(c1ccc(OCCCc2cnc[nH]2)cc1)C1CC1
21.7 nM and 6.28 nM		> 10	22.7 nM and 3.24 nM	> 10000	CN(C)[C@@H]1CCN(CCCOc2ccc(-c3ccc(C#N)cc3)cc2)C1 [A-331440]
